What was measured:
[1] = cited from earlier work
[2] = test system: patients with moderate-to-severe CD; conditions: week 24 of intervention; cited from earlier work
[3] = test system: patients with CD and UC; conditions: cited from earlier work
[4] = test system: patients with UC; conditions: cited from earlier work
[5] = test system: biopsy samples from patients with IBD; test: Cytokine profiles of patient biopsy cultures in response to treatment with various agents (Example 2); type: cell-based, human
Experimental: (§1) From each patient, intestinal mucosal biopsies were minced into several pieces and distributed in 8 wells of a 96-well plate in 250 μl of Dulbecco's Modified Eagle Medium (DMEM) supplemented with 10% FBS and antibiotic-antimycotic (Life Technologies, CA). Half of the cultures were treated with infliximab (REMICADE®; 0.5 mg/ml; Janssen Biotech, Inc, NJ) and the plate was incubated at 37° C. in a humidified chamber of 95% O2/5% CO2 for 18 hours. Culture supernatants were collected, filtered and stored at −80° C. […] Signal detection and analysis was performed by MAGPIX® (Luminex Corporation, TX).
[…] with 0.5 mg/ml infliximab (an anti-TNFα antibody; therapeutic agent), 100 μM tofacitinib (a Janus kinase (JAK) inhibitor) and an experimental drug (at 10 μM concentration) in accordance with the protocol described above. Following treatment, biopsy samples were obtained and analyzed for cytokine profiles using […].
Additional similar experiments were conducted for different patients using the same or different therapeutic agents, and the results are shown in FIG. 5D-5H.

[6] = test system: patients with IBD; test: Clinical response to anti-TNFα therapy in study patients (review of hospital records); type: in vivo, human
Experimental: Upon study completion, a total of 28 patients ([…]) with IBD, 82% with CD, had received anti-TNFα therapy. Specifically, 18 patients were treated with infliximab, 8 patients with adalimumab, 1 patient with golimumab and 1 patient with cetrolizumab pegol. The study participants' hospital electronic records were reviewed by physicians blinded to the results of the ex vivo testing and clinical responses to treatment with anti-TNFα were assessed.
Patients belonging to cohort 1 (N=6) came into the study as anti-TFNalpha naïve and had the shorter follow-up.
(a) need for hospitalization or surgical intervention for IBD-related problems (N=4);
(b) dose or frequency escalation of anti-TNFα treatment or switching to another anti-TNFα regimen (N=4);
(c) adding corticosteroids or an immunomodulator to the therapeutic scheme (N=3);
(d) treatment with emerging IBD drugs such as vedolizumab, tofacitinib, or ustekinumab (N=6).

[7] = test system: intestinal mucosal explants from patients with IBD; test: Ex vivo infliximab treatment of intestinal mucosal explant cultures, cytokines in supernatant by multiplex ELISA; type: cell-based, human; conditions: for GM-CSF inhibition by ex vivo infliximab treatment, % patients / GM-CSF inhibition by ex vivo infliximab treatment, N patients / IFNγ inhibition by ex vivo infliximab treatment, % patients / IFNγ inhibition by ex vivo infliximab treatment, N patients / IL-1β inhibition by ex vivo infliximab treatment, % patients / IL-1β inhibition by ex vivo infliximab treatment, N patients / IL-2 inhibition by ex vivo infliximab treatment, % patients / IL-2 inhibition by ex vivo infliximab treatment, N patients / IL-4 inhibition by ex vivo infliximab treatment, % patients / IL-4 inhibition by ex vivo infliximab treatment, N patients / IL-5 inhibition by ex vivo infliximab treatment, N patients / IL-6 inhibition by ex vivo infliximab treatment, % patients / IL-6 inhibition by ex vivo infliximab treatment, N patients / IL-7 inhibition by ex vivo infliximab treatment, % patients / IL-7 inhibition by ex vivo infliximab treatment, N patients / IL-8 inhibition by ex vivo infliximab treatment, % patients / IL-8 inhibition by ex vivo infliximab treatment, N patients / IL-10 inhibition by ex vivo infliximab treatment, % patients / IL-10 inhibition by ex vivo infliximab treatment, N patients / IL-12p40 inhibition by ex vivo infliximab treatment, N patients / IL-12p70 inhibition by ex vivo infliximab treatment, % patients / IL-12p70 inhibition by ex vivo infliximab treatment, N patients / IL-13 inhibition by ex vivo infliximab treatment, N patients / IL-17A inhibition by ex vivo infliximab treatment, N patients / MCP-1 inhibition by ex vivo infliximab treatment, % patients / MCP-1 inhibition by ex vivo infliximab treatment, N patients / IL-5 inhibition by ex vivo infliximab treatment, % patients / IL-12p40 inhibition by ex vivo infliximab treatment, % patients / IL-13 inhibition by ex vivo infliximab treatment, % patients / IL-17A inhibition by ex vivo infliximab treatment, % patients: infliximab 0.5 mg/ml; for number of cytokines down-regulated in the ex vivo assay: mean±SEM; for ex vivo response rate / ex vivo response rate (patients): responder = down-regulation of >2 cytokines
Experimental: During a hospital visit for an endoscopic procedure that was part of their standard care, patients were asked by the study coordinator whether they were willing to participate in this research study and sign the informed consent approved by the Institution's Committee on Clinical Investigations. From each patient, four extra punch biopsies were taken from the macroscopically most diseased areas of the inflamed intestinal mucosa, put on ice and transferred to the lab within 30 minutes of their harvesting.
as §1
Within each patient, differences in cytokine release between control and infliximab-treated cultures (n=4 per group) were assessed by the Mann-Whitney test. Cytokine changes in patients with CD (N=29) or UC (N=16) were expressed as mean±SEM and evaluated by unpaired t-test followed by Bonferroni correction for multiple comparisons. In rate or percentage comparisons a chi-square test was applied. The non-parametric Mann-Whitney test was chosen for the rest of two-group analyses. The STATView 2.0 software (SAS Institute) was used for all tests with the exception of the Receiver Operating Characteristic (ROC) analysis for which STATA13 was used.
The impact of anti-TNFα (infliximab) treatment was investigated in vitro using mucosal biopsy cultures derived from the most inflamed areas of the terminal ileum or colon of a total of 45 patients with IBD, 64% with CD and 36% with UC. At the time the biopsies were taken, 32 patients (71%) were receiving medications for their IBD and 16 of them were under an anti-TNFα regimen. The assay read-out consisted of a panel of 15 cytokines, chemokines and inflammatory mediators, and its design was based on previously reported biomarkers for CD and UC, on biomarkers that correlated with response to anti-TNFα treatment and on plausible TNF-alpha related biological mechanisms (Tracey et al., Rismo et al., Iskandar et al., Transl Res 159:313-325, 2012; Umehara et al., Hepatogastroenterology 53:879-882, 2006). For each patient and each cytokine, data were generated for the two conditions (plus/minus infliximab) using the median of 4 independent cultures.

[8] = Clinical Response No (n = 17), 18 hours
[9] = Clinical Response No (n = 17), some values below detection limit or missing, 18 hours
[10] = Clinical Response Yes (n = 11), 18 hours
[11] = Clinical Response Yes (n = 11), some values below detection limit or missing, 18 hours
[12] = Mann-Whitney within each patient, 0.5 mg/ml, 18 hours
[13] = cohort 1, anti-TNFα naïve IBD patients
[14] = cohort 2, anti-TNFα exposed patients

infliximab
patients with undetectable infliximab serum levels ([1]; 483 patients with CD during maintenance therapy): 23%
risk to loose response in the presence of ADA ([1]; metanalysis, 95% CI:2-4.9): 3.2 fold
patients positive for anti-drug antibodies (ADA) ([1]; of the CD patients with undetectable infliximab serum levels): 72%
patients developing anti-drug antibodies (ADA) ([1]; secondary loss of response): 10%
Mucosal healing rates [2]: 30.1%
sustained response rates beyond week 30 ([3]; IBD patients): 30-40%
Primary response rates to induction therapy ([3]; randomized clinical trials of CD and UC): up to 60%
clinical response rates during induction ([4]; 10 mg/kg, week 8): 61.5%
clinical response rates, maintenance therapy ([4]; week 53): 19.8%
biomarkers with reductions in level achieving statistical significance ([5]; 0.5 mg/ml, cytokine responder group compared to non-responder group (FIG. 5A)): IL-12p40, IL-12p70, IL-13, IL-17A, IL-2, IL-4, IL-5, and IL-7
TNFα levels ([5]; 0.5 mg/ml, responder and non-responder groups (FIG. 5A)): significantly attenuated in both groups
ex vivo response of patient ([5]; patient ID 13-284 (FIG. 5D)): ex vivo responder
changes in cytokine profile ([5]; patient ID 13-284 (FIG. 5D), in addition to the direct target TNFα): three cytokine expression down-regulation
clinical response rate ([6]; patients positive in the ex vivo treatment (ex vivo responders, 10/12)): 83%
clinical response rate ([6]; patients with negative ex vivo results (ex vivo non-responders, 1/16)): 6%
GM-CSF inhibition by ex vivo infliximab treatment, % patients [7, 8]: 5.9%
GM-CSF inhibition by ex vivo infliximab treatment, N patients [7, 8]: 1
IFNγ inhibition by ex vivo infliximab treatment, % patients [7, 8]: 23.5%
IFNγ inhibition by ex vivo infliximab treatment, N patients [7, 8]: 4
IL-1β inhibition by ex vivo infliximab treatment, % patients [7, 8]: 11.8%
IL-1β inhibition by ex vivo infliximab treatment, N patients [7, 8]: 2
IL-2 inhibition by ex vivo infliximab treatment, % patients [7, 8]: 11.8%
IL-2 inhibition by ex vivo infliximab treatment, N patients [7, 8]: 2
IL-4 inhibition by ex vivo infliximab treatment, % patients [7, 8]: 5.9%
IL-4 inhibition by ex vivo infliximab treatment, N patients [7, 8]: 1
IL-5 inhibition by ex vivo infliximab treatment, N patients [7, 8]: 1
IL-6 inhibition by ex vivo infliximab treatment, % patients [7, 8]: 5.9%
IL-6 inhibition by ex vivo infliximab treatment, N patients [7, 8]: 1
IL-7 inhibition by ex vivo infliximab treatment, % patients [7, 8]: 0.0%
IL-7 inhibition by ex vivo infliximab treatment, N patients [7, 8]: 0
IL-8 inhibition by ex vivo infliximab treatment, % patients [7, 8]: 5.9%
IL-8 inhibition by ex vivo infliximab treatment, N patients [7, 8]: 1
IL-10 inhibition by ex vivo infliximab treatment, % patients [7, 8]: 11.8%
IL-10 inhibition by ex vivo infliximab treatment, N patients [7, 8]: 2
IL-12p40 inhibition by ex vivo infliximab treatment, N patients [7, 8]: 3
IL-12p70 inhibition by ex vivo infliximab treatment, % patients [7, 8]: 17.6%
IL-12p70 inhibition by ex vivo infliximab treatment, N patients [7, 8]: 3
IL-13 inhibition by ex vivo infliximab treatment, N patients [7, 8]: 0
IL-17A inhibition by ex vivo infliximab treatment, N patients [7, 8]: 0
MCP-1 inhibition by ex vivo infliximab treatment, % patients [7, 8]: 5.9%
MCP-1 inhibition by ex vivo infliximab treatment, N patients [7, 8]: 1
IL-5 inhibition by ex vivo infliximab treatment, % patients [7, 9]: 7.7%
IL-12p40 inhibition by ex vivo infliximab treatment, % patients [7, 9]: 20.0^∧ %
IL-13 inhibition by ex vivo infliximab treatment, % patients [7, 9]: 0.0^∧ %
IL-17A inhibition by ex vivo infliximab treatment, % patients [7, 9]: 0.0^∧ %
GM-CSF inhibition by ex vivo infliximab treatment, % patients [7, 10]: 9.1%
GM-CSF inhibition by ex vivo infliximab treatment, N patients [7, 10]: 1
IFNγ inhibition by ex vivo infliximab treatment, % patients [7, 10]: 45.5%
IFNγ inhibition by ex vivo infliximab treatment, N patients [7, 10]: 5
IL-1β inhibition by ex vivo infliximab treatment, % patients [7, 10]: 45.5%
IL-1β inhibition by ex vivo infliximab treatment, N patients [7, 10]: 5
IL-2 inhibition by ex vivo infliximab treatment, % patients [7, 10]: 45.5%
IL-2 inhibition by ex vivo infliximab treatment, N patients [7, 10]: 5
IL-4 inhibition by ex vivo infliximab treatment, % patients [7, 10]: 63.6%
IL-4 inhibition by ex vivo infliximab treatment, N patients [7, 10]: 7
IL-5 inhibition by ex vivo infliximab treatment, % patients [7, 10]: 81.8%
IL-5 inhibition by ex vivo infliximab treatment, N patients [7, 10]: 9
IL-6 inhibition by ex vivo infliximab treatment, % patients [7, 10]: 0.0%
IL-6 inhibition by ex vivo infliximab treatment, N patients [7, 10]: 0
IL-7 inhibition by ex vivo infliximab treatment, N patients [7, 10]: 8
IL-8 inhibition by ex vivo infliximab treatment, % patients [7, 10]: 0.0%
IL-8 inhibition by ex vivo infliximab treatment, N patients [7, 10]: 0
IL-10 inhibition by ex vivo infliximab treatment, % patients [7, 10]: 18.2%
IL-10 inhibition by ex vivo infliximab treatment, N patients [7, 10]: 2
IL-12p40 inhibition by ex vivo infliximab treatment, % patients [7, 10]: 45.5%
IL-12p40 inhibition by ex vivo infliximab treatment, N patients [7, 10]: 5
IL-12p70 inhibition by ex vivo infliximab treatment, % patients [7, 10]: 27.3%
IL-12p70 inhibition by ex vivo infliximab treatment, N patients [7, 10]: 3
IL-13 inhibition by ex vivo infliximab treatment, N patients [7, 10]: 7
IL-17A inhibition by ex vivo infliximab treatment, % patients [7, 10]: 72.7%
IL-17A inhibition by ex vivo infliximab treatment, N patients [7, 10]: 8
MCP-1 inhibition by ex vivo infliximab treatment, % patients [7, 10]: 9.1%
MCP-1 inhibition by ex vivo infliximab treatment, N patients [7, 10]: 1
IL-7 inhibition by ex vivo infliximab treatment, % patients [7, 11]: 88.8%
IL-13 inhibition by ex vivo infliximab treatment, % patients [7, 11]: 70.0%
number of cytokines per patient, besides TNFα, significantly inhibited ex vivo, maximum [7, 12]: 12
number of cytokines per patient, besides TNFα, significantly inhibited ex vivo, median [7, 12]: 2
number of cytokines per patient, besides TNFα, significantly inhibited ex vivo, minimum [7, 12]: 0
Changes in TNFα levels in culture supernatant ([7]; all patients tested, p<0.0001, 0.5 mg/ml, 18 hours): robustly down-regulated
number of cytokines down-regulated in the ex vivo assay ([7]; clinical non-responders to anti-TNFα therapy): 1.29±0.63
number of cytokines down-regulated in the ex vivo assay ([7]; clinical responders to anti-TNFα therapy): 6.0±1.02
ex vivo inhibition of IL-17A, IL-7, IL-5 and IL-4/IL-13 ([7]; clinical responders versus non-responders to anti-TNFα therapy): almost exclusively observed in the clinical responders
ex vivo response rate [7, 13]: 45.5%
ex vivo response rate (patients) [7, 13]: 10/23
ex vivo response rate [7, 14]: 43.5%
ex vivo response rate (patients) [7, 14]: 10/22
magnitude of infliximab-mediated inhibition of the rest of cytokines (other than TNFα) ([7]; group means, CD and UC patients, 0.5 mg/ml, 18 hours): < 30%
cytokines whose inhibition reached statistical significance ([7]; patients with CD (N=29), 0.5 mg/ml, 18 hours): IL-2 (p<0.001), IL-12p40 (p<0.05) and IL-5 (p<0.05)
cytokines whose inhibition reached statistical significance ([7]; patients with UC (N=16), 0.5 mg/ml, 18 hours): IL-1β (p<0.05) and IL-7 (p<0.05)

vedolizumab
changes in cytokine profile ([5]; patient ID 13-562 (FIG. 5F)): only one cytokine expression down-regulation and four cytokine expression up-regulation
ex vivo response of patient ([5]; patient ID 13-562 (FIG. 5F)): ex vivo non-responder

From US10458996B1, “Methods for determining clinical response to TNF-alpha and/or JAK inhibitors in subjects with inflammatory diseases” (Beth Israel Deaconess Medical Center, Inc., priority 2016, dated 2019)
